Key:
[1] = target: T1, Neutrophil elastase (Homo sapiens) (UniProt P08246)
T1 sequence (whole entry): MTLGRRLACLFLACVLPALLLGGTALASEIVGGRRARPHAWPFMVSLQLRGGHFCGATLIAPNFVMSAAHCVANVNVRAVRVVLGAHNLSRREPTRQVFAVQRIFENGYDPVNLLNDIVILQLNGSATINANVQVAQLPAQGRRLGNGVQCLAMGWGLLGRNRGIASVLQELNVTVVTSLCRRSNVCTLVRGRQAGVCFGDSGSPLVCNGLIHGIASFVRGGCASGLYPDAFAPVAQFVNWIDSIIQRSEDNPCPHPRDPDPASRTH
Description: Inhibition of Elastase using Suc-Ala-Ala-Pro-Ala-pNA as substrate, activity expressed as Kobs/[I] (second order rate constant)

Cricetinae gen. sp. [2] = experiment: Tested in vivo for inhibition of hamster lung hemorrhage after intratracheal administration at 1 hr prior to challenge with HLE (human leukocyte elastase); assay type: functional, Cricetulus griseus
Cricetinae gen. sp. [3] = experiment: Tested in vivo for inhibition of hamster lung hemorrhage after intratracheal administration at 2 hr prior to challenge with HLE (human leukocyte elastase); assay type: functional, Cricetulus griseus
Cricetinae gen. sp. [4] = experiment: Tested in vivo for inhibition of hamster lung hemorrhage after intratracheal administration at 3h prior to challenge with HLE(human leukocyte elastase); assay type: functional, Cricetulus griseus
Neutrophil elastase = target: T2, Neutrophil elastase (Homo sapiens, UniProt P08246); experiment: Tested in vitro for its inhibitory effect against Elastase using Suc-Ala--Ala-Pro-Ala-pNA as substrate
T2 sequence (P08246 whole entry): T1 sequence (whole entry)

Cricetinae gen. sp. [5] = experiment: Tested in vivo for inhibition of hamster lung hemorrhage after intratracheal administration at 3h prior to challenge with HLE (human leukocyte elastase); assay type: functional, Cricetulus griseus
[6] = target: T1, Neutrophil elastase (Homo sapiens); experiment: Tested in vitro for its inhibitory effect against Human leukocyte elastase using Suc-Ala--Ala-Pro-Ala-pNA as substrate, activity expressed as Kobs/[I] (second order rate constant)
[7] = Tested for chemical stability of the compound; assay type: physicochemical

| K obs / 1 [1] [M⁻¹ s⁻¹] | Ki (Neutrophil elastase) [µM] | half-life [7] [h] | Compound | also measured |
| --- | --- | --- | --- | --- |
| – | 50 | – | CN(CC(=O)O)C(=O)[C@@H]1N2C(=O)[C@@H](NC(=O)C(F)(F)F)[C@H]2S(=O)(=O)C1(C)C | – |
| 5700 | – | – | CN(C(=O)C(F)(F)F)[C@H]1C(=O)N2[C@@H](C(=O)OCc3ccc(C(=O)O)cc3)C(C)(C)S(=O)(=O)[C@H]12 | – |
| – | 14 | 4.8 | CN(CC(=O)O)C(=O)[C@@H]1N2C(=O)[C@H](NC(=O)C(F)(F)F)[C@H]2S(=O)(=O)C1(C)C | – |
| 5400 | – | 4.2 | CN(Cc1ccc(C(=O)O)cc1)C(=O)[C@@H]1N2C(=O)[C@H](NC(=O)C(F)(F)F)[C@H]2S(=O)(=O)C1(C)C | – |
| 7100 | – | 1.1 | CC1(C)[C@H](C(=O)OCc2ccc(C(=O)O)cc2)N2C(=O)[C@@H](NC(=O)C(F)(F)F)[C@H]2S1(=O)=O | – |
| 60 | – | 8.2 | CN(Cc1ccc(C(=O)O)cc1)C(=O)[C@@H]1N2C(=O)[C@H](NC(=O)C(F)(F)F)[C@H]2[S+]([O-])C1(C)C (stereo partly drawn) | – |
| 89000 | – | 1.1 | CC1(C)[C@H](C(=O)OCc2ccc(C(=O)O)cc2)N2C(=O)[C@H](NC(=O)C(F)(F)F)[C@H]2S1(=O)=O | – |
| 275 | – | 4.5 | CN(Cc1ccc(C(=O)O)cc1)C(=O)[C@@H]1N2C(=O)[C@@H](NC(=O)C(F)(F)F)[C@H]2S(=O)(=O)C1(C)C | – |
| 1100 | – | 8.6 | CN(Cc1ccc(C(=O)O)cc1)C(=O)[C@@H]1N2C(=O)[C@H](NC(=O)C(F)(F)F)[C@@H]2[S+]([O-])C1(C)C (stereo partly drawn) | – |

Second part, the molecule before the results:

| Compound | K obs / 1 [1] [M⁻¹ s⁻¹] | Ki (Neutrophil elastase) [µM] | half-life [7] [h] | also measured |
| --- | --- | --- | --- | --- |
| CC1(C)[C@H](C(=O)N2CCC[C@@H]2C(=O)O)N2C(=O)[C@H](NC(=O)C(F)(F)F)[C@H]2S1(=O)=O | 26 | – | – | – |
| CO[C@H]1C(=O)N2C(C(=O)N3CCC[C@H]3C(=O)O)=C(COC(C)=O)CS(=O)(=O)[C@H]12 | 3800 | – | – | Inhibition (Cricetinae gen. sp. [2]): 99%; Inhibition (Cricetinae gen. sp. [3]): 97%; Inhibition (Cricetinae gen. sp. [4]): 78% |
| CO[C@H]1C(=O)N2C(C(=O)N(C)CC(=O)O)=C(COC(C)=O)CS(=O)(=O)[C@H]12 | – | – | – | Inhibition (Cricetinae gen. sp. [2]): 97%; Inhibition (Cricetinae gen. sp. [3]): 80%; Inhibition (Cricetinae gen. sp. [5]): 54% |
| CO[C@H]1C(=O)N2[C@@H](C(=O)OCc3ccc(C(=O)O)cc3)C(C)(C)S(=O)(=O)[C@H]12 | – | – | < 1 | K obs / 1 [6]: 5600 M⁻¹ s⁻¹ |
| CC1(C)[C@H](C(=O)N2CCC[C@@H]2C(=O)O)N2C(=O)[C@@H](NC(=O)C(F)(F)F)[C@H]2S1(=O)=O | – | 22 | – | – |
| CC1(C)[C@H](C(=O)OCc2ccc(C(=O)O)cc2)N2C(=O)[C@H](NC(=O)C(F)(F)F)[C@H]2[S+]1[O-] (stereo partly drawn) | – | 1.5 | 1.4 | – |
| CO[C@H]1C(=O)N2[C@@H](C(=O)N(C)CC(=O)O)C(C)(C)S(=O)(=O)[C@H]12 | – | 53 | – | – |
| CCO[C@H]1C(=O)N2[C@@H](C(=O)OCc3ccc(C(=O)O)cc3)C(C)(C)S(=O)(=O)[C@H]12 | – | 1.3 | – | – |
| CC1(C)[C@H](C(=O)OCc2ccc(C(=O)O)cc2)N2C(=O)[C@H](NC(=O)C(F)(F)F)[C@@H]2[S+]1[O-] (stereo partly drawn) | 4900 | – | 5.3 | – |

Source: ChEMBL document CHEMBL1127140, “Inhibition of human leukocyte elastase. 7. Inhibition by 6-substituted penicillin amides” (Bioorg Med Chem Lett, 1993)
